Experimental data reported in patent US20200108066A1, “METHODS FOR MODULATING REGULATORY T CELLS AND IMMUNE RESPONSES USING CDK4/6 INHIBITORS” (Dana-Farber Cancer Institute, Inc., priority 2017, published 2020).

Columns and labels:
[1] = tested on: MMTV-rtTA/tetO-HER2 tumors; assay: Combined abemaciclib and anti-PD-L1 therapy in MMTV-rtTA/tetO-HER2 tumor bearing mice; type: in vivo, mouse
Method: After 3 days, the dose was dropped to 75 mg/kg daily and treatment with an anti-PD-L1 antibody (200 μg by intraperitoneal injection every 72 hours; BioXcell, clone 10F.9G2) or an isotype control antibody (200 μg by intraperitoneal injection every 72 hours) was commenced. Mice were euthanized using CO2 inhalation, and all mouse experiments were performed in accordance with protocols approved by the Institutional Animal Care and Use Committees of Dana-Farber Cancer Institute, Harvard Medical School, and Boston Children's Hospital.

thymocytes = assay: Thymic mass and thymic cell populations in tumor-free FVB mice; type: in vivo, mouse; conditions: 12 days
Method: FIG. 10 includes 9 panels, identified as panels A, B, C, D, E, F, G, H, and I, which show the impact of CDK4/6 inhibition on immune cell populations and Treg biology. […] Panel C compares thymic mass with or without abemaciclib/palbociclib treatment. Thymic cell populations were quantified by flow cytometry.
Following mechanical digestion and RBC lysis, single cell suspensions were blocked with anti-CD16/32 for 20 minutes on ice. Cells were incubated with appropriate antibodies for 30 minutes on ice.
Murine antibodies used for flow cytometry include those recognizing CD45 (clone 30-F11), CD3 (clone 145-2C11), CD8 (clone 53-6.7), CD4 (clone RM4-5), PD-1 (clone 29F.1A12), Tim-3 (clone RMT3-23), CTLA-4 (clone UC10-4B9), LAG-3 (clone C9B7W), B220 (clone RA3-6B2), NK1.1 (clone PK136), CD11b (clone M1/70), Ly6G (clone 1A8), Ly6C (clone AL-21), FoxP3 (clone FJK-16s), and Ki-67 (clone 16A8). Human antibodies used for flow cytometry were those recognizing β2-microglobulin (clone 2M2) and HLA-A, B, C (clone W6/32). Antibodies were purchased from Biolegend with the exception of anti-FoxP3 from eBioscience and anti-Ly6C from BD Pharmigen. All antibodies used for flow cytometry were directly conjugated to fluorophores. […] Flow cytometry was performed on a LSRII (BD Biosciences, San Jose, Calif.) or FACSCANTOII (BD Biosciences), and data was analyzed using FlowJo® (TreeStar).

[2] = tested on: MMTV-rtTA/tetO-HER2 tumors; assay: Tumor growth in MMTV-rtTA/tetO-HER2 transgenic mice; type: in vivo, mouse; conditions: bulky tumors growing prior to treatment; three independent experiments
From the text: Tumor formation was induced in MMTV-rtTA/tetO-HER2 mice with doxycycline as previously described in Goel et al. (2016) Cancer Cell 29:255-269. Female FVB mice (7 weeks of age) were purchased from Taconic Biosciences (Hudson, N.Y.). Female J:NU nude mice (8 weeks of age) were purchased from Jackson Labs (Bar Harbor, Me.). FVB CD45.2+ mice used as a source of T cells for in vitro studies were a kind gift from Dr. Daniel Tenen. For tumor growth studies in J:NU mice, MMTV-rtTA/tetO-HER2 tumor explants were orthotopically implanted bilaterally into nude mice, as previously described in Goel et al. (2016), supra. […] For tumor experiments in transgenic MMTV-rtTA/tetO-HER2 mice, tumors measured between 5 mm and 15 mm when treatment was begun. Mice were assigned into treatment groups so that the distribution of tumor volumes was even between groups. Tumor volume was calculated as previously described in Goel et al. (2016), supra and tumors were measured by caliper 2-3 times per week. For tumor growth curve analysis, one-way ANOVA tests were performed with correction for multiple comparisons using Sidak's multiple comparisons test. […]

[3] = tested on: tumor-infiltrating CD8+ and CD4+ T cells; assay: Inhibitory co-receptor expression on intratumoral T cells (flow cytometry); type: in vivo, mouse
Method: Tumors were first mechanically disrupted by chopping, then chemically digested in dissociation buffer (2 mg/mL collagenase type IV (Worthington Biochemical, Lakewood, N.J.), 0.02 mg/mL DNase (Sigma Aldrich) in DMEM (Life Technologies) containing 5% FBS (Life Technologies), PenStrep (Hyclone)) with agitation at 37° C. for 45 minutes. After RBC lysis, single cell suspensions were blocked with anti-CD16/32 for 20 minutes on ice. Then, cells were incubated with the appropriate antibodies for 30 minutes on ice.
Murine antibodies used for flow cytometry include those recognizing CD45 (clone 30-F11), CD3 (clone 145-2C11), CD8 (clone 53-6.7), CD4 (clone RM4-5), PD-1 (clone 29F.1A12), Tim-3 (clone RMT3-23), CTLA-4 (clone UC10-4B9), LAG-3 (clone C9B7W), B220 (clone RA3-6B2), NK1.1 (clone PK136), CD11b (clone M1/70), Ly6G (clone 1A8), Ly6C (clone AL-21), FoxP3 (clone FJK-16s), and Ki-67 (clone 16A8). Human antibodies used for flow cytometry were those recognizing β2-microglobulin (clone 2M2) and HLA-A, B, C (clone W6/32). Antibodies were purchased from Biolegend with the exception of anti-FoxP3 from eBioscience and anti-Ly6C from BD Pharmigen. All antibodies used for flow cytometry were directly conjugated to fluorophores. The anti-mouse/rat FoxP3 staining set (eBioscience) was used for intracellular staining according to the manufacturer's instructions. 7AAD was used to distinguish live/dead cells, except for analyses requiring intracellular staining when eFluor® 450 fixable viability dye (eBioscience) or Zombie Yellow™ fixable viability dye (Biolegend) were used. To determine the absolute number of cells in a sample, CountBright™ absolute counting beads (Molecular Probes, ThermoFisher) were added. Flow cytometry was performed on a LSRII (BD Biosciences, San Jose, Calif.) or FACSCANTOII (BD Biosciences), and data was analyzed using FlowJo® (TreeStar).
Furthermore, the mRNA level of Ifng (the main effector cytokine of cytotoxic T cells) was more than 4-fold higher in treated bulk tumor tissue (FIG. 13D).

[4] = tested on: MMTV-rtTA/tetO-HER2 tumors; assay: Gene expression (transcriptome, qPCR) in MMTV-rtTA/tetO-HER2 tumor tissue; type: in vivo, mouse
MDA-MB-453 cells = assay: Expression analysis (transcriptome, qPCR, Western blot, ELISA) in MDA-MB-453 cells treated in vitro; type: cell-based, human; conditions: SASP gene, abemaciclib 500 nM, 7 days, relative to DMSO
[5] = Plasma autoantibody ELISAs (anti-ANA, anti-dsDNA); type: in vivo, mouse; conditions: tumor-free and tumor-bearing mice, 12 days
Method: For the last 24 hours, the culture media was replaced with serum free media. Following concentration of conditioned media using Amicon® Ultra centrifugal filters (Millipore, Billerica, Mass.), cytokines were analyzed according to the manufacturer's recommendations using the following kits: human IFN gamma ELISA Ready-SET-Go!® (Affymetrix eBioscience), human TNF alpha ELISA Ready-SET-Go!® (Affymetrix eBioscience), Verikine human IFN alpha ELISA kit (PBL assay science, Piscataway, N.J.), VeriKine-HS human IFN beta serum ELISA kit (PBL assay science), human IL-28B quantikine ELISA kit (R&D Systems, Minneapolis, Minn.), human […] Systems), and human IL-29 DuoSet ELISA (R&D Systems). Anti-ANA and anti-dsDNA ELISAs (Alpha Diagnostic, San Antonio, Tex.) were performed according to the manufacturer's instructions on plasma isolated from tumor free or tumor-bearing mice. Absorbance was measured on a SynergyTM Neo plate reader (BioTek, Winooski, Vt.) using Gen5TM software.

[6] = tested on: MDA-MB-453 and BT474 cells; assay: Doxorubicin-induced senescence; type: cell-based, human; conditions: doxorubicin 200 nM 24 h, RNA 72 hours later
Method: MDA-MB-453 and BT474 cells were treated with doxorubicin (Sigma Aldrich, 200 nM) for a period of 24 hrs. The cells were then cultured in fresh media for 72 hours after treatment, and RNA was extracted for qPCR.

SMILES | average reduction in tumor volume at day 13 of treatment [1] | total thymic mass (thymocytes) | average reduction in tumor volume at the 12-day end point [2] | fractions of PD-1high and PD-1+/TIM-3+ cytotoxic T cells ([3]; 6 days treatment vs vehicle) | number of inhibitory receptors detected on any given cytotoxic T cell ([3]; 6 days treatment vs vehicle) | reduction of PD-1+/TIM-3+ cytotoxic T cell fraction ([3]; 6 days treatment vs vehicle) | CD8+ cells expressing none of the inhibitory receptors ([3]; abemaciclib treated tumors, 6 days) | Fold change (abema vs DMSO treatment): COL1A1 ([4]; SASP gene, MMTV-rtTA/tetO-HER2 tumors, abemaciclib 12 days, relative to vehicle) | mRNA level of Ifng in bulk tumor tissue, treated vs vehicle ([4]; qPCR) | Fold change (abema vs DMSO treatment): COL1A1 (MDA-MB-453 cells) | autoimmune phenotype: anti-nuclear antibody (ANA) or anti-dsDNA antibody levels [5] | beta galactosidase and interleukin-6 expression [6]
CCN1CCN(Cc2ccc(Nc3ncc(F)c(-c4cc(F)c5nc(C)n(C(C)C)c5c4)n3)nc2)CC1 [abemaciclib] | 35% | significantly reduced | 40% | significantly reduced | lower | 50% | over 50% | 1.207 fold | more than 4 fold | 0.752 fold | No associated increases | 
COc1cccc2c1C(=O)c1c(O)c3c(c(O)c1C2=O)C[C@@](O)(C(=O)CO)C[C@@H]3O[C@H]1C[C@H](N)[C@H](O)[C@H](C)O1 [doxorubicin] |  |  |  |  |  |  |  |  |  |  |  | increased
CC(=O)c1c(C)c2cnc(Nc3ccc(N4CCNCC4)cn3)nc2n(C2CCCC2)c1=O [palbociclib] |  | significantly reduced |  |  |  |  |  |  |  |  |  | 
